ChEMBL document CHEMBL5126592, “Design, synthesis and activity against drug-resistant bacteria evaluation of C-20, C-23 modified 5-O-mycaminosyltylonolide derivatives” (Eur J Med Chem, 2022)
≈ marks a conversion by molar mass, not a printed value. Calls of active or inactive are those of the source. No cut-off for these calls is given here.

Key:
Assay type in all cases: functional
Cronobacter sakazakii = assay: Antibacterial activity against Cronobacter sakazakii ATCC 29544 incubated for 16 to 20 hrs by broth microdilution method; conditions: time 16-20 hrs
Escherichia coli [1] = assay: Antibacterial activity against Escherichia coli incubated for 16 to 20 hrs by broth microdilution method; conditions: time 16-20 hrs
[2] = test system: Streptococcus dysgalactiae; assay: Antibacterial activity against Streptococcus dysgalactiae incubated for 16 to 20 hrs by broth microdilution method; conditions: time 16-20 hrs
Klebsiella pneumoniae = assay: Antibacterial activity against Klebsiella pneumoniae ATCC 13883 incubated for 16 to 20 hrs by broth microdilution method; conditions: time 16-20 hrs
Staphylococcus aureus [3] = assay: Antibacterial activity against Staphylococcus aureus incubated for 16 to 20 hrs by broth microdilution method; conditions: time 16-20 hrs
[4] = test system: Staphylococcus chromogenes; assay: Antibacterial activity against Staphylococcus chromogenes incubated for 16 to 20 hrs by broth microdilution method; conditions: time 16-20 hrs
Enterococcus faecium = assay: Antibacterial activity against Enterococcus faecium incubated for 16 to 20 hrs by broth microdilution method; conditions: time 16-20 hrs
Pseudomonas aeruginosa = assay: Antibacterial activity against Pseudomonas aeruginosa LTP-3 incubated for 16 to 20 hrs by broth microdilution method; conditions: time 16-20 hrs
Staphylococcus aureus [5] = assay: Antibacterial activity against Staphylococcus aureus ATCC 25923 incubated for 16 to 20 hrs by broth microdilution method; conditions: time 16-20 hrs
Escherichia coli [6] = assay: Antibacterial activity against Escherichia coli ATCC 25922 incubated for 16 to 20 hrs by broth microdilution method; conditions: time 16-20 hrs
Escherichia coli [7] = assay: Induction of drug resistance in Escherichia coli ATCC 25922 assessed as increase in MIC measured after 30 passages by broth microdilution method

SMILES | MIC (Cronobacter sakazakii) [µg/mL] | MIC (Escherichia coli [1]) [µg/mL] | MIC [2] [µg/mL] | MIC (Klebsiella pneumoniae) [µg/mL] | MIC (Staphylococcus aureus [3]) [µg/mL] | MIC [4] [µg/mL] | MIC (Enterococcus faecium) [µg/mL] | MIC (Pseudomonas aeruginosa) [µg/mL] | MIC (Staphylococcus aureus [5]) [µg/mL] | MIC (Escherichia coli [6]) [µg/mL] | Activity (Escherichia coli [7])
NC[C@H]1O[C@H](O[C@H]2[C@H](O)[C@@H](O[C@H]3O[C@H](CO)[C@@H](O)[C@H](N)[C@H]3O)[C@H](N)C[C@@H]2N)[C@H](N)C[C@@H]1O [TOBRAMYCIN] | 16 (≈ 34.2 µM) | > 32 | 16 (≈ 34.2 µM) | 8 (≈ 17.1 µM) | 1 (≈ 2.14 µM) | 2 (≈ 4.28 µM) | 32 (≈ 68.4 µM) | 32 (≈ 68.4 µM) | 8 (≈ 17.1 µM) | 8 (≈ 17.1 µM) | 
CC[C@H]1OC(=O)C[C@@H](O)[C@H](C)[C@@H](O[C@@H]2O[C@H](C)[C@@H](O)[C@H](N(C)C)[C@H]2O)[C@@H](CCN(C)Cc2cn(-c3cnc4ccccc4c3)nn2)C[C@@H](C)C(=O)/C=C/C(C)=C/[C@@H]1CN(CC)CC | 4 (≈ 4.57 µM) | 4 (≈ 4.57 µM) | 0.5 (≈ 0.571 µM) | 1 (≈ 1.14 µM) | 0.5 (≈ 0.571 µM) | 1 (≈ 1.14 µM) | 2 (≈ 2.28 µM) | 2 (≈ 2.28 µM) | 0.125 (≈ 0.143 µM) | 2 (≈ 2.28 µM) | 
CCCN1C[C@H](C)[C@@H](O)[C@](C)(O)[C@@H](CC)OC(=O)[C@H](C)[C@@H](O[C@H]2C[C@](C)(OC)[C@H](O)[C@@H](C)O2)[C@H](C)[C@@H](O[C@@H]2O[C@H](C)C[C@H](N(C)C)[C@H]2O)[C@](C)(O)C[C@H]1C | 16 (≈ 20.6 µM) | 16 (≈ 20.6 µM) | 32 (≈ 41.2 µM) | 16 (≈ 20.6 µM) | 8 (≈ 10.3 µM) | 8 (≈ 10.3 µM) | 32 (≈ 41.2 µM) | 32 (≈ 41.2 µM) | 4 (≈ 5.15 µM) | 16 (≈ 20.6 µM) | 
CS(=O)(=O)c1ccc([C@@H](O)[C@@H](CF)NC(=O)C(Cl)Cl)cc1 |  |  |  |  |  |  |  |  |  |  | Active
CC[C@H]1OC(=O)C[C@@H](O)[C@H](C)[C@@H](O[C@@H]2O[C@H](C)[C@@H](O)[C@H](N(C)C)[C@H]2O)[C@@H](CCN(Cc2ccccc2)Cc2cn(-c3cnc4ccccc4c3)nn2)C[C@@H](C)C(=O)/C=C/C(C)=C/[C@@H]1CO | 32 (≈ 35.7 µM) | 8 (≈ 8.92 µM) | 0.5 (≈ 0.557 µM) | 8 (≈ 8.92 µM) | 0.5 (≈ 0.557 µM) | 4 (≈ 4.46 µM) | 4 (≈ 4.46 µM) | 4 (≈ 4.46 µM) | 0.25 (≈ 0.279 µM) | 8 (≈ 8.92 µM) | 
CC[C@H]1OC(=O)C[C@@H](O)[C@H](C)[C@@H](O[C@@H]2O[C@H](C)[C@@H](O)[C@H](N(C)C)[C@H]2O)[C@@H](CC=O)C[C@@H](C)C(=O)/C=C/C(C)=C/[C@@H]1CO | > 32 | > 32 | 1 (≈ 1.67 µM) | > 32 | 1 (≈ 1.67 µM) | 1 (≈ 1.67 µM) | 1 (≈ 1.67 µM) | 32 (≈ 53.5 µM) | 0.5 (≈ 0.836 µM) | > 32 | 
